# Results as given in US20040092552A1, “2-Fluorobenzenesulfonyl compounds for the treatment of inflammation” (priority 2003, published 2004).
# Where a name gives a salt, the structure may show the parent alone.
row,Compound,melting point
1,"NS(=O)(=O)c1ccc(-n2nc(C(F)(F)F)cc2-c2ccc(Cl)cc2)cc1F (as salt: trifluoroacetate) [Example 5, 4-[5-(4-Chlorophenyl)-3-trifluoromethyl-1H-pyrazol-1-yl]-2-fluorobenizenesulfonamide]",140 to 141 °C
2,"CS(=O)(=O)c1ccc(-c2cc(C(F)F)nn2-c2cccc(C(F)(F)F)c2)cc1F (as salt: trifluoroacetate) [Example 21, 3-(Difluoromethyl)-5-[3-fluoro-4-(methylsulfonyl)-phenyl]-1-[3-(trifluoromethyl)-phenyl]-1H-pyrazole]",110 to 111 °C
3,"CS(=O)(=O)c1ccc(-c2cc(C(F)(F)F)nn2-c2ccc(OC(F)(F)F)cc2)cc1F [Example 14, 5-[3-Fluoro-4-(methylsulfonyl)phenyl]-3-(trifluoromethyl)-1-[4-(trifluoromethoxy)phenyl]-1H-pyrazole]",110 to 112 °C
4,"CS(=O)(=O)c1ccc(C2=C(c3ccccc3)C(=O)OC2)cc1F [Example 24, 4-[3-Fluoro-4-(methylsulfonyl)phenyl]-3-phenyl-2(5H)-furanone]",161 to 162 °C
5,"COc1ccccc1-c1cc(C(F)(F)F)nn1-c1ccc(S(N)(=O)=O)c(F)c1 (as salt: trifluoroacetate) [Example 9, 2-Fluoro-4-[5-(2-methoxyphenyl)-3-(trifluoromethyl)-1H-pyrazol-1-yl]benzenesulfonamide]",159 to 160 °C
6,"NS(=O)(=O)c1ccc(-n2nc(C(F)(F)F)cc2-c2ccc(F)cc2)cc1F (as salt: trifluoroacetate) [Example 8, 2-Fluoro-4-[5-(4-fluorophenyl)-3-(trifluoromethyl)-1H-pyrazol-1-yl]benzenesulfonamide]",127 to 130 °C
7,"NS(=O)(=O)c1ccc(-c2cscc2-c2ccccc2)cc1F [Example 1, 2-Fluoro-4-(4-phenyl-3-thienyl)benzenesulfonamide]",170.9 to 171 °C
8,"COc1ccc(-c2cc(C(F)(F)F)nn2-c2ccc(S(N)(=O)=O)c(F)c2)cc1F (as salt: trifluoroacetate) [Example 6, 4-[5-(3-Fluoro-4-methoxy)-3-trifluoromethyl-1H-pyrazol-1-yl]-2 fluorobenzenesulfonamide]",124 to 126 °C
9,"CS(=O)(=O)c1ccc(-c2cc(C(F)(F)F)nn2-c2ccc(F)cc2)cc1F [Example 11, 5-[3-Fluoro-4-(methylsulfonyl)phenyl]-1-(4-fluorophenyl)-3-(trifluoromethyl)-1H-pyrazole]",228 to 229 °C
10,"Cc1onc(-c2ccc(F)cc2)c1-c1ccc(S(N)(=O)=O)c(F)c1 [Example 22, 2-Fluoro-4-[3-(4-fluorophenyl)-5-methyl-4-isoxazolyl]benzenesulfonamide]",176 to 177 °C
11,"CS(=O)(=O)c1ccc(-c2cc(C(F)(F)F)nn2-c2ccc(C#N)cc2)cc1F [Example 16, 4-[5-[3-Fluoro-4-(methylsulfonyl)phenyl]-3-(trifluoromethyl)-1H-pyrazol-1-yl]benzonitrile]",152 to 153 °C
12,"CS(=O)(=O)c1ccc(-c2cscc2-c2ccccc2)cc1F [Example 2, 3-[3-Fluoro-4-(methylsulfonyl)phenyl]-4-phenylthiophene]",140 to 141 °C
13,"CS(=O)(=O)c1ccc(-c2cc(C(F)F)nn2C2CCCCC2)cc1F (as salt: trifluoroacetate) [Example 19, 1-Cyclohexyl-3-(difluoromethyl)-5-[3-fluoro-4-(methylsulfonyl)phenyl]-1H-pyrazole]",138 to 139 °C
14,"Cc1cccc(-n2nc(C(F)(F)F)cc2-c2ccc(S(C)(=O)=O)c(F)c2)c1 [Example 17, 5-[3-Fluoro-4-(methylsulfonyl)phenyl]-1-(3-methylphenyl)-3-(trifluoromethyl)-1H-pyrazole]",129 to 130 °C
15,"CS(=O)(=O)c1ccc(-c2cc(C(F)(F)F)nn2C2CCCCC2)cc1F [Example 12, 1-Cyclohexyl-5-[3-fluoro-4-(methylsulfonyl)phenyl]-3-(trifluoromethyl)-1H-pyrazole]",228 to 229 °C
16,"Cc1ccc(-n2nc(C(F)(F)F)cc2-c2ccc(S(C)(=O)=O)c(F)c2)cc1Cl [Example 15, 1-(3-Chloro-4-methylphenyl)-5-[3-fluoro-4-(methylsulfonyl)phenyl]-3-(trifluoromethyl)-1H-pyrazole]",144 to 145 °C
17,"Cc1ccc(-c2cc(C(F)F)nn2-c2ccc(S(N)(=O)=O)c(F)c2)cc1Cl [Example 3, 4-[5-(3-chloro-4-methylphenyl)-3-(difluoromethyl)-1H-pyrazol-1-yl]-2-fluorobenzenesulfonamide]",160 to 161 °C
18,"COc1ccc(-c2cc(C(F)F)nn2-c2ccc(S(N)(=O)=O)c(F)c2)cc1F [Example 10, 4-[3-(Difluoromethyl)-5-(3-fluoro-4-methoxyphenyl)-1H-pyrazol-1-yl]-2-fluorobenzenesulfonamide]",167 to 169 °C
19,"CS(=O)(=O)c1ccc(-c2cc(C(F)F)nn2-c2ccc(F)cc2)cc1F (as salt: trifluoroacetate) [Example 18, 3-(Difluoromethyl)-5-[3-fluoro-4-(methylsulfonyl)phenyl]-1-(4-fluorophenyl)-1H-pyrazole]",201 to 202 °C
20,"Cc1ccc(-n2nc(C(F)F)cc2-c2ccc(S(C)(=O)=O)c(F)c2)cc1Cl (as salt: trifluoroacetate) [Example 20, 1-(3-Chloro-4-methylphenyl)-3-(difluoromethyl)-5-[3-fluoro-4-(methylsulfonyl)phenyl]-1H-pyrazole]",146 to 147 °C
21,"Cc1ccc(-c2cc(C(F)(F)F)nn2-c2ccc(S(N)(=O)=O)c(F)c2)cc1 (as salt: trifluoroacetate) [Example 4, 4-[5-(4-Methylphenyl)-3-(trifluoromethyl)-1H-pyrazol-1-yl]-2-fluorobenzenesulfonamide]",126 to 128 °C
